Assay [1] concerns the target T1, HiBit-BRG1 fusion protein in stable HeLa cell line expressing HiBit-BRG1 and LgBit (Homo sapiens, UniProt P51532).
T1 construct: expressed in transfected cells
Kind of assay: HiBiT-BRG1 cell-based degradation assay (Nano-Glo HiBiT, 24 h). The note with it: HeLa HiBit-BRG1/LgBit cells; for Dmax: top dose 30 μM, read-out: BRG1 HiBit Degradation Maximum (%); for DC50: read-out: BRMG1 HiBit Degradation IC50. The method, boiled down: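 Degradation calculated from NanoBiT luminescence relative to DMSO-treated cells (high) and cells given 2 μM known BRM/BRG1 degrader (low). HeLa cells stably expressing HiBiT-BRG1 plus LgBiT were exposed to compound for 24 h before lytic HiBiT detection.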
For orientation: HiBiT is a short tag that completes a luciferase, so light tracks the accessible tagged protein.

Assay [2] deals with T2, HiBiT-BRM fusion protein in stable HeLa cell line (Homo sapiens, UniProt P51531).
T2 construct: expressed in transfected cells
T2 sequence (P51531 whole entry, the tested form may be a part): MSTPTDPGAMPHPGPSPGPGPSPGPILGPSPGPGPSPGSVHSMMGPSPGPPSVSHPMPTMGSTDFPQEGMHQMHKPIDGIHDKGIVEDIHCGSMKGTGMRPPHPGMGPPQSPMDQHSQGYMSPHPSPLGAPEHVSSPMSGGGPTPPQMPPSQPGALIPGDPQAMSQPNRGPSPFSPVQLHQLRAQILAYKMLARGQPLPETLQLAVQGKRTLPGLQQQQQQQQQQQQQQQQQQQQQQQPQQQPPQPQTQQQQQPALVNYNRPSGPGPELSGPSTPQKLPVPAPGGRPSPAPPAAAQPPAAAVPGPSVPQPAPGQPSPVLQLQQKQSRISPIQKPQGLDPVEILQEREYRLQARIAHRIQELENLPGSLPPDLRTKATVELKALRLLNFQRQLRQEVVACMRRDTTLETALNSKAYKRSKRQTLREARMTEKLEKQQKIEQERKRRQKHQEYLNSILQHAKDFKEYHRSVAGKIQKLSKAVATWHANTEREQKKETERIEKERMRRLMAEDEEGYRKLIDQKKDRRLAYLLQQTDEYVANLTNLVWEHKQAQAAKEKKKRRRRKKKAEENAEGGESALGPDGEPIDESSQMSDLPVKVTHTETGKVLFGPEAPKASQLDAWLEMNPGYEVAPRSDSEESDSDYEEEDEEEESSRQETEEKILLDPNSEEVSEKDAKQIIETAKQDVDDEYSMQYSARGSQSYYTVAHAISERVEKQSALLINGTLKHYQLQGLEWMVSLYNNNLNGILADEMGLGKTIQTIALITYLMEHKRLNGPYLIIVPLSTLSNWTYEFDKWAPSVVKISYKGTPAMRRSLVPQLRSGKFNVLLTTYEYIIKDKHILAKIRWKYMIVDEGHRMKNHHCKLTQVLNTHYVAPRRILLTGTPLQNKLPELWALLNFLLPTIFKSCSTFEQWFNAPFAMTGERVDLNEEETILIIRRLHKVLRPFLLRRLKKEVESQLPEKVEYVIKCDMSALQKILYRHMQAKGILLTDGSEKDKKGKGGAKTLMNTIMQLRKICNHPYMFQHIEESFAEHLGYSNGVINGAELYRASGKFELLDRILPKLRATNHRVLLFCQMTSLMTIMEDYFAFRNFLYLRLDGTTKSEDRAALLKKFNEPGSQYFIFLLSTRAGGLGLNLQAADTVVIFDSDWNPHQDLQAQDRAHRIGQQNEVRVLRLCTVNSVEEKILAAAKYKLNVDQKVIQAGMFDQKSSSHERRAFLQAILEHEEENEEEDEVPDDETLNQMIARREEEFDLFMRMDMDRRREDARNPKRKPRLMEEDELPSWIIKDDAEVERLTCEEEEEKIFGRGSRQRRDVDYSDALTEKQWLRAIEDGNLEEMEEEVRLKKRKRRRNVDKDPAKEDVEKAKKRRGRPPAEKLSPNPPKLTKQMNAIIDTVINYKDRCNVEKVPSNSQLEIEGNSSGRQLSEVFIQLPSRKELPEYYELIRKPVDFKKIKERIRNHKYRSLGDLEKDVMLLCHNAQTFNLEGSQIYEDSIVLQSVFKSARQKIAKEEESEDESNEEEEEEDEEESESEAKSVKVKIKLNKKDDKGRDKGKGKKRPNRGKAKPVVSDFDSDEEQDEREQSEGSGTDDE
Kind of assay: HiBiT-BRM cell-based degradation assay (Nano-Glo HiBiT Lytic Detection, 24 h). Further details: DC50: scale not given here. The note with it: HeLa HiBiT-BRM cells; for DC50: read-out: BRM HiBit Degradation IC50; for BRM HiBit Degradation Maximum (%): top dose 30 μM. The gist of the method: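 HiBiT-tagged BRM levels in a stable HeLa line are measured after one day of compound treatment (up to 30 μM final, duplicate 10-point curves) by adding LgBiT lytic reagent and reading bioluminescence; values are expressed relative to vehicle and a 2 μM degrader control.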

T1 sequence (P51532 whole entry, the tested form may be a part): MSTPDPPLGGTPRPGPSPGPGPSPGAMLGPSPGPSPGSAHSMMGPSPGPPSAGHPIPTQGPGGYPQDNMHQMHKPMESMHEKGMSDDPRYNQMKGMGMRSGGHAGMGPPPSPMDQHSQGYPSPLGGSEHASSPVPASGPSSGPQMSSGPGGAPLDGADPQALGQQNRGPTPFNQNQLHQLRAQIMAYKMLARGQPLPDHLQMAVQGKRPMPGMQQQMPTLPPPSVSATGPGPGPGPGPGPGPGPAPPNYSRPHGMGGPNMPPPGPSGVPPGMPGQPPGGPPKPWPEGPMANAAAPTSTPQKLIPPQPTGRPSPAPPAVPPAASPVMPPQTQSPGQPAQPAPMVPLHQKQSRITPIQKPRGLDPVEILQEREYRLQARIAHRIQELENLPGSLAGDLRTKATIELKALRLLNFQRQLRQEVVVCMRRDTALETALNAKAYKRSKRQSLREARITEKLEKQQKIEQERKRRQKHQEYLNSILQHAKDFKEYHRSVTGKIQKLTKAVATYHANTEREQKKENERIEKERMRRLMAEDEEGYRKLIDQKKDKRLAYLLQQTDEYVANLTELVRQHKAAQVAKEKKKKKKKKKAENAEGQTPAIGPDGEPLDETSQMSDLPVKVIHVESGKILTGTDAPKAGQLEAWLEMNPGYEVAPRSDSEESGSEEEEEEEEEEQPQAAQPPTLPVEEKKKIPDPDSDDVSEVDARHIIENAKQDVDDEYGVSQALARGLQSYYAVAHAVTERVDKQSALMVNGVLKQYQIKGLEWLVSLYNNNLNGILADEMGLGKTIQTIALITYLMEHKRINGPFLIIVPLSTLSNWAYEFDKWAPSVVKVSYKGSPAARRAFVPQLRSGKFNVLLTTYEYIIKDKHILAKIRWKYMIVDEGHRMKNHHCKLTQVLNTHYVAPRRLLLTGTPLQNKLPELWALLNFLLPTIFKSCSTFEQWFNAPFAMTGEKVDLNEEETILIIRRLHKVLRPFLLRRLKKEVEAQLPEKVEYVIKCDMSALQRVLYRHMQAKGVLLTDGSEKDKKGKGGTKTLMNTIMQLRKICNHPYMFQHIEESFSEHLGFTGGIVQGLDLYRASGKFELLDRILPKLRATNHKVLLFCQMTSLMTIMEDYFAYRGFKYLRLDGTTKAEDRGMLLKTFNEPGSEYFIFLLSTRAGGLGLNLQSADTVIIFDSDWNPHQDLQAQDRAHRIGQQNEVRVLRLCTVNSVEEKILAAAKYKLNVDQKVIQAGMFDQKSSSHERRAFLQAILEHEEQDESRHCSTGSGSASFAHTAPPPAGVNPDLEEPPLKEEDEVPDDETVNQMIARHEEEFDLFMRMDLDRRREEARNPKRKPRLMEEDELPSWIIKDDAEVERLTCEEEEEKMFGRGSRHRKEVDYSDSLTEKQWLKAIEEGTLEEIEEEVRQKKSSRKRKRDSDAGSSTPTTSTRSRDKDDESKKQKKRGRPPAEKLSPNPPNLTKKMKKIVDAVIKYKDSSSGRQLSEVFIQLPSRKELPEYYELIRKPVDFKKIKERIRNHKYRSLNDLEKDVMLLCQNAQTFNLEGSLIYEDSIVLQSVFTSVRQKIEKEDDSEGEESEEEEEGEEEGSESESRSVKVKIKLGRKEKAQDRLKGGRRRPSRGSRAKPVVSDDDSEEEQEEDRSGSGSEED

`Cc1ncsc1-c1ccc([C@H](C)NC(=O)[C@@H]2C[C@@H](O)CN2C(=O)[C@@H](c2cc(N3CC4(C3)CN(c3cc5nnc(-c6ccccc6O)cc5cc3F)C4)no2)C(C)C)cc1` [Compound 179, (2S,4R)-1-((R)-2-(3-(6-(6-fluoro-3-(2-hydroxyphenyl)cinnolin-7-yl)-2,6-diazaspiro [3.3]heptan-2-yl)isoxazol-5-yl)-3-methylbutanoyl)-4-hydroxy-N-((S)-1-(4-(4-methylthiazol-5-yl)phenyl)ethyl)pyrrolidine-2-carboxamide]: the Dmax in assay [1] was < 50%. For the same compound, in assay [2], the DC50 was < 10 nM and the “BRM HiBit Degradation Maximum (%)” value is listed as “A (“A” indicates maximum degradation ≥75%)”.
For `Cc1ncsc1-c1ccc([C@H](C)NC(=O)[C@@H]2C[C@@H](O)CN2C(=O)[C@@H](c2cc(-c3cnc(N4CCC5(CC4)CC(c4ccc6nnc(-c7ccccc7O)cc6c4)C5)nc3)no2)C(C)C)cc1` [Compound 56, (2S,4R)-4-hydroxy-1-((R)-2-(3-(2-(2-(3-(2-hydroxyphenyl)cinnolin-6-yl)-7-azaspiro[3.5]nonan-7-yl)pyrimidin-5-yl)isoxazol-5-yl)-3-methylbutanoyl)-N-((S)-1-(4-(4-methylthiazol-5-yl)phenyl)ethyl)pyrrolidine-2-carboxamide], in assay [1], the DC50 is < 10 nM and the Dmax is > 75%. Besides, in assay [2], the DC50 is < 10 nM and the “BRM HiBit Degradation Maximum (%)” value is “A (“A” indicates maximum degradation ≥75%)”.
With `Cc1cc(N2CCC(c3ccc4cc(-c5ccccc5O)nnc4c3)CC2)ncc1-c1cc([C@H](C(=O)N2C[C@H](O)C[C@H]2C(=O)N[C@@H](C)c2ccc(-c3scnc3C)cc2)C(C)C)on1` [Compound 81, (2S,4R)-4-hydroxy-1-((R)-2-(3-(6-(4-(3-(2-hydroxyphenyl)cinnolin-7-yl)piperidin-1-yl)-4-methylpyridin-3-yl)isoxazol-5-yl)-3-methylbutanoyl)-N-((S)-1-(4-(4-methylthiazol-5-yl)phenyl)ethyl)pyrrolidine-2-carboxamide], the Dmax in assay [1] was < 50%. Besides, in assay [2], the DC50 was < 10 nM and the “BRM HiBit Degradation Maximum (%)” value is recorded as “A (“A” indicates maximum degradation ≥75%)”.
On to `Cc1ncsc1-c1ccc([C@H](C)NC(=O)[C@@H]2C[C@@H](O)CN2C(=O)C(F)(c2cc(N3CC4(CN(c5ccc6cc(-c7ccccc7O)nnc6c5)C4)C3)no2)C(C)C)cc1` (stereo in doubt) [Compound 221, (2S,4R)-1-((R)-2-fluoro-2-(3-(6-(3-(2-hydroxyphenyl)cinnolin-7-yl)-2,6-diazaspiro[3.3]heptan-2-yl)isoxazol-5-yl)-3-methylbutanoyl)-4-hydroxy-N-((S)-1-(4-(4-methylthiazol-5-yl)phenyl)ethyl)pyrrolidine-2-carboxamide], for which, in assay [1], the DC50 is > 10 nM and the Dmax was > 50%. Also, in assay [2], the DC50 was < 10 nM and the “BRM HiBit Degradation Maximum (%)” value is given as “A (“A” indicates maximum degradation ≥75%)”.
Taken in the same sequence, the figures for `Cc1ncsc1-c1ccc([C@H](C)NC(=O)[C@@H]2C[C@@H](O)CN2C(=O)[C@@H](c2cc(N3CCOC4(CN(c5ccc6nnc(-c7ccccc7O)cc6c5)C4)C3)no2)C(C)C)cc1` [Compound 146, (2S,4R)-4-hydroxy-1-((R)-2-(3-(2-(3-(2-hydroxyphenyl)cinnolin-6-yl)-5-oxa-2,8-diazaspiro[3.5]nonan-8-yl)isoxazol-5-yl)-3-methylbutanoyl)-N-((S)-1-(4-(4-methylthiazol-5-yl)phenyl)ethyl)pyrrolidine-2-carboxamide] were > 10 nM, > 75%, < 10 nM and “A (“A” indicates maximum degradation ≥75%)”.
`Cc1ncsc1-c1ccc([C@H](C)NC(=O)[C@@H]2C[C@@H](O)CN2C(=O)[C@@H](c2cc(N3CC4(CCN(c5ccc6cc(-c7ccccc7O)nnc6c5)CC4)C3)no2)C(C)C)cc1` [Compound 95, (2S,4R)-4-hydroxy-1-((R)-2-(3-(7-(3-(2-hydroxyphenyl)cinnolin-7-yl)-2,7-diazaspiro[3.5]nonan-2-yl)isoxazol-5-yl)-3-methylbutanoyl)-N-((S)-1-(4-(4-methylthiazol-5-yl)phenyl)ethyl)pyrrolidine-2-carboxamide]: in assay [1], the DC50 is < 10 nM and the Dmax is > 75%. In addition, in assay [2], the DC50 is < 10 nM and the “BRM HiBit Degradation Maximum (%)” value is “A (“A” indicates maximum degradation ≥75%)”.
As for `Cc1ncsc1-c1ccc([C@H](C)NC(=O)[C@@H]2C[C@@H](O)CN2C(=O)[C@@H](c2cc(-c3ccc4nnc(-c5cccc(F)c5O)cc4c3)no2)C(C)C)cc1` [Compound 143, (2S,4R)-1-((R)-2-(3-(3-(3-fluoro-2-hydroxyphenyl)cinnolin-6-yl)isoxazol-5-yl)-3-methylbutanoyl)-4-hydroxy-N-((S)-1-(4-(4-methylthiazol-5-yl)phenyl)ethyl)pyrrolidine-2-carboxamide], the Dmax in assay [1] was < 50%. In assay [2], the DC50 is < 10 nM and the “BRM HiBit Degradation Maximum (%)” value is reported as “A (“A” indicates maximum degradation ≥75%)”.
For `Cc1ncsc1-c1ccc([C@H](C)NC(=O)[C@@H]2C[C@@H](O)CN2C(=O)C(C(C)C)n2cc(N3CCC34CN(c3ccc5cc(-c6ccccc6O)nnc5c3)C4)nn2)cc1` (stereo partly drawn) [Compound 265, (2S,4R)-4-hydroxy-1-(2-(4-(6-(3-(2-hydroxyphenyl)cinnolin-7-yl)-1,6-diazaspiro[3.3]heptan-1-yl)-1H-1,2,3-triazol-1-yl)-3-methylbutanoyl)-N-((S)-1-(4-(4-methylthiazol-5-yl)phenyl)ethyl)pyrrolidine-2-carboxamide], in assay [1], the DC50 is > 100 nM and the Dmax is > 75%. Moreover, in assay [2], the DC50 is > 100 nM and the “BRM HiBit Degradation Maximum (%)” value is given as “A (“A” indicates maximum degradation ≥75%)”.
Consider `Cc1ncsc1-c1ccc([C@H](C)NC(=O)[C@@H]2C[C@@H](O)CN2C(=O)C(C(C)C)n2cc(N3CC4CN(c5ccc6cc(-c7ccccc7O)nnc6c5)CCC43)nn2)cc1` (stereo partly drawn) [Compound 250, (2S,4R)-4-hydroxy-1-(2-(4-(3-(3-(2-hydroxyphenyl)cinnolin-7-yl)-3,7-diazabicyclo[4.2.0]octan-7-yl)-1H-1,2,3-triazol-1-yl)-3-methylbutanoyl)-N-((S)-1-(4-(4-methylthiazol-5-yl)phenyl)ethyl)pyrrolidine-2-carboxamide], for which, in assay [1], the DC50 was < 10 nM and the Dmax is > 75%. Also, in assay [2], the DC50 is < 10 nM and the “BRM HiBit Degradation Maximum (%)” value is recorded as “A (“A” indicates maximum degradation ≥75%)”.
Consider `Cc1ncsc1-c1ccc([C@H](C)NC(=O)[C@@H]2C[C@@H](O)CN2C(=O)[C@H](C(C)C)n2cc(-c3ccc4nnc(-c5cccc(F)c5O)cc4c3)nn2)cc1` [Compound 150, (2S,4R)-1-((S)-2-(4-(3-(3-fluoro-2-hydroxyphenyl)cinnolin-6-yl)-1H-1,2,3-triazol-1-yl)-3-methylbutanoyl)-4-hydroxy-N-((S)-1-(4-(4-methylthiazol-5-yl)phenyl)ethyl)pyrrolidine-2-carboxamide], for which, in assay [1], the DC50 is < 10 nM and the Dmax was > 75%. In addition, in assay [2], the DC50 was < 10 nM and the “BRM HiBit Degradation Maximum (%)” value is reported as “A (“A” indicates maximum degradation ≥75%)”.
Take `Cc1ncsc1-c1ccc([C@H](C)NC(=O)[C@@H]2C[C@@H](O)CN2C(=O)[C@@H](c2cc(N3CCC4(CC3)CC(Oc3ccc5nnc(-c6ccccc6O)cc5c3)C4)no2)C(C)C)cc1` (single isomer, unassigned) [Compound 185]: in assay [1], the DC50 is < 10 nM and the Dmax is > 75%. Besides, in assay [2], the DC50 is < 10 nM and the “BRM HiBit Degradation Maximum (%)” value was “A (“A” indicates maximum degradation ≥75%)”.
Take `Cc1nc(N2CCC(c3ccc4cc(-c5ccccc5O)nnc4c3)CC2)ccc1-c1cc([C@H](C(=O)N2C[C@H](O)C[C@H]2C(=O)N[C@@H](C)c2ccc(-c3scnc3C)cc2)C(C)C)on1` [Compound 80, (2S,4R)-4-hydroxy-1-((R)-2-(3-(6-(4-(3-(2-hydroxyphenyl)cinnolin-7-yl)piperidin-1-yl)-2-methylpyridin-3-yl)isoxazol-5-yl)-3-methylbutanoyl)-N-((S)-1-(4-(4-methylthiazol-5-yl)phenyl)ethyl)pyrrolidine-2-carboxamide]: in assay [1], the DC50 is > 10 nM and the Dmax is > 75%. Besides, in assay [2], the DC50 was < 10 nM and the “BRM HiBit Degradation Maximum (%)” value is listed as “A (“A” indicates maximum degradation ≥75%)”.
As for `COc1cc2nnc(-c3ccccc3O)cc2cc1C1CN(c2ncc(-c3cc([C@@H](C(=O)N4C[C@H](O)C[C@H]4C(=O)N[C@@H](C)c4ccc(-c5scnc5C)cc4)C(C)C)on3)cn2)C1` [Compound 23], the Dmax in assay [1] was < 50%. Further, in assay [2], the DC50 is > 10 nM and the “BRM HiBit Degradation Maximum (%)” value was “A (“A” indicates maximum degradation ≥75%)”.
`Cc1ncsc1-c1ccc([C@H](C)NC(=O)[C@@H]2C[C@@H](O)CN2C(=O)[C@@H](c2cc(N3CCC(c4ccc5cc(-c6ccccc6O)nnc5c4)CC3)no2)C(C)C)cc1` [Compound 74, (2S,4R)-4-hydroxy-1-((R)-2-(3-(4-(3-(2-hydroxyphenyl)cinnolin-7-yl)piperidin-1-yl)isoxazol-5-yl)-3-methylbutanoyl)-N-((S)-1-(4-(4-methylthiazol-5-yl)phenyl)ethyl)pyrrolidine-2-carboxamide]: the Dmax in assay [1] is < 50%. In addition, in assay [2], the DC50 is < 10 nM and the “BRM HiBit Degradation Maximum (%)” value is listed as “A (“A” indicates maximum degradation ≥75%)”.

The values are drawn from patent US20260193264A1, “BENZOYPARAZINE PYRAZINES AND THEIR USES” (FOGHORN THERAPEUTICS INC., priority 2022, published 2026).
